From PubChem BioAssay (NCI)
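1) Cells in 96-well plates. 2) Compound, 48 h, 5 concentrations. 3) Linear interpolation between surrounding doses. 4) Unreached endpoint = highest concentration. At the GI50, growth is halved. TGI is the concentration that stops growth completely.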

Tests used:
Experiment in all cases: inhibition of tumour cell growth, NCI panel, 48 h
M14 melanoma = system: M14 melanoma
SW-620 colon = system: SW-620 colon
786-0 renal = system: 786-0 renal
MALME-3M melanoma = system: MALME-3M melanoma
PC-3 prostate = system: PC-3 prostate
SN12C renal = system: SN12C renal
SK-MEL-28 melanoma = system: SK-MEL-28 melanoma
OVCAR-3 ovarian = system: OVCAR-3 ovarian
NCI-H23 lung = system: NCI-H23 lung
RXF 393 renal = system: RXF 393 renal
MDA-MB-231 breast = system: MDA-MB-231 breast
SF-295 CNS = system: SF-295 CNS
UO-31 renal = system: UO-31 renal
HS 578T breast = system: HS 578T breast
K-562 leukemia = system: K-562 leukemia
MCF7 breast = system: MCF7 breast
HOP-92 NSCLC = system: HOP-92 NSCLC
HOP-62 NSCLC = system: HOP-62 NSCLC
LOX IMVI melanoma = system: LOX IMVI melanoma
A498 renal = system: A498 renal
SR leukemia = system: SR leukemia
RPMI-8226 leukemia = system: RPMI-8226 leukemia
MDA-MB-468 breast = system: MDA-MB-468 breast
UACC-62 melanoma = system: UACC-62 melanoma
A549 NSCLC = system: A549 NSCLC
SK-OV-3 ovarian = system: SK-OV-3 ovarian
SF-268 CNS = system: SF-268 CNS
CCRF-CEM leukemia = system: CCRF-CEM leukemia
BT-549 breast = system: BT-549 breast
KM12 colon = system: KM12 colon
OVCAR-5 ovarian = system: OVCAR-5 ovarian
ACHN renal = system: ACHN renal
HL-60(TB) leukemia = system: HL-60(TB) leukemia
NCI-H460 lung = system: NCI-H460 lung
T-47D breast = system: T-47D breast
OVCAR-8 ovarian = system: OVCAR-8 ovarian
IGROV1 ovarian = system: IGROV1 ovarian
TK-10 renal = system: TK-10 renal
U251 CNS = system: U251 CNS
COLO 205 colon = system: COLO 205 colon
HCT-116 colon = system: HCT-116 colon
DU-145 prostate = system: DU-145 prostate
EKVX NSCLC = system: EKVX NSCLC
OVCAR-4 ovarian = system: OVCAR-4 ovarian
HCT-15 colon = system: HCT-15 colon
SNB-19 CNS = system: SNB-19 CNS
NCI-H226 lung = system: NCI-H226 lung
HT29 colon = system: HT29 colon
HCC-2998 colon = system: HCC-2998 colon
SNB-75 CNS = system: SNB-75 CNS
SF-539 CNS = system: SF-539 CNS
UACC-257 melanoma = system: UACC-257 melanoma
SK-MEL-5 melanoma = system: SK-MEL-5 melanoma
MOLT-4 leukemia = system: MOLT-4 leukemia
NCI-H522 lung = system: NCI-H522 lung
CAKI-1 renal = system: CAKI-1 renal

CN(C)c1ccnc(CNCCSC2(c3ccc(C(F)(F)F)cc3)c3ccccc3CCc3ccccc32)c1
GI50 (M14 melanoma): 465 nM | TGI (M14 melanoma): 2970 nM | GI50 (SW-620 colon): 446 nM | TGI (SW-620 colon): 12500 nM | GI50 (786-0 renal): 1900 nM | TGI (786-0 renal): 11200 nM | GI50 (MALME-3M melanoma): 1440 nM | TGI (MALME-3M melanoma): 3090 nM | GI50 (PC-3 prostate): 1050 nM | TGI (PC-3 prostate): 12000 nM | GI50 (SN12C renal): 590 nM | TGI (SN12C renal): 8250 nM | GI50 (SK-MEL-28 melanoma): 3760 nM | TGI (SK-MEL-28 melanoma): 15900 nM | GI50 (OVCAR-3 ovarian): 1310 nM | TGI (OVCAR-3 ovarian): 10500 nM | GI50 (NCI-H23 lung): 2720 nM | TGI (NCI-H23 lung): 11800 nM | GI50 (RXF 393 renal): 2170 nM | TGI (RXF 393 renal): 9120 nM | GI50 (MDA-MB-231 breast): 479 nM | TGI (MDA-MB-231 breast): 2750 nM | GI50 (SF-295 CNS): 467 nM | TGI (SF-295 CNS): 2340 nM | GI50 (UO-31 renal): 2460 nM | TGI (UO-31 renal): 16000 nM | GI50 (HS 578T breast): 1620 nM | TGI (HS 578T breast): 7580 nM | GI50 (K-562 leukemia): 336 nM | TGI (K-562 leukemia): 1860 nM | GI50 (MCF7 breast): 356 nM | TGI (MCF7 breast): 4320 nM | GI50 (HOP-92 NSCLC): 2120 nM | TGI (HOP-92 NSCLC): 11700 nM | GI50 (HOP-62 NSCLC): 2200 nM | TGI (HOP-62 NSCLC): 13600 nM | GI50 (LOX IMVI melanoma): 1140 nM | TGI (LOX IMVI melanoma): 2430 nM | GI50 (A498 renal): 14000 nM | TGI (A498 renal): 32100 nM | GI50 (SR leukemia): 345 nM | TGI (SR leukemia): 1620 nM | GI50 (RPMI-8226 leukemia): 1180 nM | TGI (RPMI-8226 leukemia): 6420 nM | GI50 (MDA-MB-468 breast): 293 nM | TGI (MDA-MB-468 breast): 906 nM | GI50 (UACC-62 melanoma): 3240 nM | TGI (UACC-62 melanoma): 14500 nM | GI50 (A549 NSCLC): 1300 nM | TGI (A549 NSCLC): 15100 nM | GI50 (SK-OV-3 ovarian): 3320 nM | TGI (SK-OV-3 ovarian): 13400 nM | GI50 (SF-268 CNS): 3240 nM | TGI (SF-268 CNS): 17700 nM | GI50 (CCRF-CEM leukemia): 370 nM | TGI (CCRF-CEM leukemia): 6350 nM | GI50 (BT-549 breast): 2760 nM | TGI (BT-549 breast): 7360 nM | GI50 (KM12 colon): 1260 nM | TGI (KM12 colon): 5160 nM | GI50 (OVCAR-5 ovarian): 2040 nM | TGI (OVCAR-5 ovarian): 9120 nM | GI50 (ACHN renal): 909 nM | TGI (ACHN renal): 15000 nM | GI50 (HL-60(TB) leukemia): 394 nM | TGI (HL-60(TB) leukemia): 1960 nM | GI50 (NCI-H460 lung): 603 nM | TGI (NCI-H460 lung): 2540 nM | GI50 (T-47D breast): 3420 nM | TGI (T-47D breast): 15600 nM | GI50 (OVCAR-8 ovarian): 739 nM | TGI (OVCAR-8 ovarian): 10800 nM | GI50 (IGROV1 ovarian): 1400 nM | TGI (IGROV1 ovarian): 13600 nM | GI50 (TK-10 renal): 3910 nM | TGI (TK-10 renal): 16100 nM | GI50 (U251 CNS): 439 nM | TGI (U251 CNS): 3560 nM | GI50 (COLO 205 colon): 1020 nM | TGI (COLO 205 colon): 2420 nM | GI50 (HCT-116 colon): 365 nM | TGI (HCT-116 colon): 1780 nM | GI50 (DU-145 prostate): 3080 nM | TGI (DU-145 prostate): 11300 nM | GI50 (EKVX NSCLC): 653 nM | TGI (EKVX NSCLC): 12700 nM | GI50 (OVCAR-4 ovarian): 4050 nM | TGI (OVCAR-4 ovarian): 17300 nM | GI50 (HCT-15 colon): 403 nM | TGI (HCT-15 colon): 11000 nM | GI50 (SNB-19 CNS): 1240 nM | TGI (SNB-19 CNS): 14300 nM | GI50 (NCI-H226 lung): 2380 nM | TGI (NCI-H226 lung): 13900 nM | GI50 (HT29 colon): 1680 nM | TGI (HT29 colon): 4110 nM | GI50 (HCC-2998 colon): 537 nM | TGI (HCC-2998 colon): 1830 nM | GI50 (SNB-75 CNS): 1840 nM | TGI (SNB-75 CNS): 8920 nM | GI50 (SF-539 CNS): 675 nM | TGI (SF-539 CNS): 2470 nM | GI50 (UACC-257 melanoma): 3670 nM | TGI (UACC-257 melanoma): 15900 nM | GI50 (SK-MEL-5 melanoma): 1150 nM | TGI (SK-MEL-5 melanoma): 2460 nM | GI50 (MOLT-4 leukemia): 1600 nM | TGI (MOLT-4 leukemia): 4450 nM | GI50 (NCI-H522 lung): 473 nM | TGI (NCI-H522 lung): 4260 nM | GI50 (CAKI-1 renal): 2110 nM | TGI (CAKI-1 renal): 14800 nM
